Test systems include HS 578T breast; T-47D breast; UACC-257 melanoma; OVCAR-5 ovarian; HL-60(TB) leukemia; UO-31 renal; M14 melanoma; SR leukemia; K-562 leukemia; IGROV1 ovarian.
Test in all cases: NCI tumour cell line growth inhibition, 48 h

Values joined by “and” are separate entries in the source; they are usually repeats but may differ in a detail not shown here. Identical values can stand only once.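 96-well plates; 48 h exposure; 5 concentrations. Endpoints by linear interpolation between flanking doses. Not reached: highest tested concentration assigned. GI50 = concentration required for 50% inhibition of growth. TGI: concentration producing complete growth inhibition.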

`COC1C(O)=C2C(=O)O/C(C)=C/C=C/C=C/C=C\CC(c3ccccc3)NC(=O)\C=C/C=C\C=C\C=C\[C@@]2(C)[C@@H]1O` (some centres not stated): the TGI in the assay on HS 578T breast was 0.0395 µM; in the assay on T-47D breast, 0.158 µM; in the assay on UACC-257 melanoma it was 0.165 µM; with OVCAR-5 ovarian it was 0.413 µM; in the assay with HL-60(TB) leukemia it was 0.0421 µM; in the assay with UO-31 renal it was 0.0607 µM. The TGI came to 0.35 µM in the assay with M14 melanoma, 0.165 µM with SR leukemia, 0.158 µM with K-562 leukemia and 0.287 µM with IGROV1 ovarian.
Regarding `CC1(C)OCCn2c1nc1c(N3CCOCC3)nc(-c3cnc(N)nc3)nc12`, the GI50 is 0.135 µM in the assay with HS 578T breast; 0.0325 µM in the assay on T-47D breast; 0.197 µM in the assay on UACC-257 melanoma; 0.249 µM with OVCAR-5 ovarian; 0.141 µM with HL-60(TB) leukemia; 0.0912 µM in the assay on UO-31 renal. Further, the GI50 is 0.316 µM in the assay on M14 melanoma, 0.752 µM in the assay with SR leukemia, 2.27 µM in the assay on K-562 leukemia and 0.0622 µM in the assay on IGROV1 ovarian. In addition, the TGI is 0.981 µM with HS 578T breast; 0.248 µM with T-47D breast; 1.97 µM in the assay with UACC-257 melanoma; > 100 µM with OVCAR-5 ovarian; > 31.3 µM in the assay on HL-60(TB) leukemia; 1.11 µM in the assay with UO-31 renal. Besides, the TGI in the assay with M14 melanoma was > 100 µM; with SR leukemia, > 83.6 µM; in the assay with K-562 leukemia, > 100 µM; in the assay on IGROV1 ovarian it was 0.432 µM.
On to `Cc1[nH]c2ccccc2c1-c1cc(-c2cc(-c3c(C)[nH]c4ccccc34)on2)no1`, for which the TGI in the assay with HS 578T breast is 90.6 µM; in the assay on T-47D breast, > 100 µM; in the assay with UACC-257 melanoma it was > 100 µM; in the assay with OVCAR-5 ovarian it was > 100 µM; with HL-60(TB) leukemia, > 100 µM; in the assay with UO-31 renal it was > 100 µM. The TGI is > 100 µM in the assay with M14 melanoma, 96.7 µM in the assay on SR leukemia, > 100 µM with K-562 leukemia and > 100 µM in the assay with IGROV1 ovarian.
Consider `C=CCc1cccc(/C=N/NC(=O)CN2CCN(Cc3ccccc3)CC2)c1O`, for which the GI50 in the assay on HS 578T breast is 5.63 µM; in the assay with T-47D breast it was 2.32 µM; in the assay with UACC-257 melanoma, 2.46 µM; in the assay with OVCAR-5 ovarian, 4.46 µM; with HL-60(TB) leukemia it was 1.6 µM; with UO-31 renal it was 1.15 µM. The GI50 is 1.84 µM with M14 melanoma, 0.772 µM with SR leukemia, 1.87 µM in the assay with K-562 leukemia and 0.483 µM in the assay with IGROV1 ovarian. In addition, the TGI in the assay with HS 578T breast was found to be 23.1 µM; in the assay with T-47D breast, 14.9 µM; in the assay on UACC-257 melanoma, 13.8 µM; in the assay with OVCAR-5 ovarian, 18.1 µM; with HL-60(TB) leukemia it was 4.79 µM; with UO-31 renal it was 7.38 µM. For the same molecule, the TGI in the assay with M14 melanoma was 13.3 µM; in the assay with SR leukemia it was 4.24 µM; in the assay with K-562 leukemia, 11 µM; in the assay with IGROV1 ovarian it was 3.13 µM.
In the case of `N#Cc1c(-c2ccc(F)cc2)c(-c2ccc(F)cc2)nn(CCO)c1=O`, the TGI in the assay with HS 578T breast is 12.1 µM; with T-47D breast, > 100 µM; in the assay with UACC-257 melanoma, > 100 µM; in the assay with OVCAR-5 ovarian it was > 100 µM; in the assay with HL-60(TB) leukemia it was 0.292 µM; in the assay with UO-31 renal, > 100 µM. Moreover, the TGI was > 100 µM in the assay on M14 melanoma, > 100 µM with SR leukemia, > 100 µM in the assay with K-562 leukemia and > 87.4 µM in the assay on IGROV1 ovarian.
For `CCCn1c(N)c(C(=O)N/N=C(/C)c2cc3cccc(OC)c3o2)sc1=S`, the GI50 was 17.7 µM in the assay with HS 578T breast; > 100 µM with T-47D breast; 23.2 µM in the assay on UACC-257 melanoma; > 100 µM in the assay on OVCAR-5 ovarian; > 100 µM with HL-60(TB) leukemia; 27.7 µM with UO-31 renal. Also, the GI50 in the assay with M14 melanoma is 53.8 µM; in the assay with SR leukemia it was 8.66 µM; in the assay on K-562 leukemia it was 18.3 µM; with IGROV1 ovarian, 48.2 µM. In addition, the TGI was 69.9 µM in the assay with HS 578T breast; > 100 µM in the assay on T-47D breast; > 100 µM in the assay on UACC-257 melanoma; > 100 µM in the assay on OVCAR-5 ovarian; > 100 µM with HL-60(TB) leukemia; > 100 µM in the assay with UO-31 renal. Also, the TGI in the assay with M14 melanoma, in the assay on SR leukemia, in the assay on K-562 leukemia and in the assay with IGROV1 ovarian was > 100 µM throughout.
As for `COc1cc(-c2nn(-c3cccc(NC(=O)Nc4ccc(Cl)c(Cl)c4)c3)cc2-c2ccncc2)ccc1Cl`, the GI50 is 1.43 µM in the assay with HS 578T breast; 1.42 µM with T-47D breast; 1.04 µM with UACC-257 melanoma; 2.13 µM with OVCAR-5 ovarian; 1.66 µM in the assay with HL-60(TB) leukemia; 0.845 µM with UO-31 renal. Further, the GI50 in the assay with M14 melanoma was 0.911 µM; with SR leukemia, 0.932 µM; with K-562 leukemia, 0.89 µM; with IGROV1 ovarian it was 1.18 µM. The TGI in the assay with HS 578T breast was > 50 µM; in the assay on T-47D breast, > 50 µM; in the assay with UACC-257 melanoma, 3.11 µM; with OVCAR-5 ovarian, > 50 µM; with HL-60(TB) leukemia, > 50 µM; with UO-31 renal it was 4.96 µM. Besides, the TGI is 2.69 µM in the assay with M14 melanoma, 2.8 µM in the assay with SR leukemia, > 50 µM with K-562 leukemia and 3.48 µM in the assay on IGROV1 ovarian.
Regarding `O=C(c1ccc(F)c(F)c1Nc1ccc(I)cc1F)N1CC(O)([C@@H]2CCCCN2)C1`, the GI50 in the assay on HS 578T breast is 5.05 µM and > 6.42 µM; in the assay with T-47D breast, 9.05 µM and > 10 µM; in the assay on UACC-257 melanoma it was < 0.01 µM and 0.00413 µM; with OVCAR-5 ovarian, < 0.0277 µM and 0.0403 µM; in the assay on HL-60(TB) leukemia it was < 0.0172 µM and 0.00962 µM; with UO-31 renal, 0.0596 µM and 0.538 µM. In addition, the GI50 in the assay with M14 melanoma was < 0.01 µM and 0.00283 µM; in the assay with SR leukemia, 1.64 µM and 3.35 µM; with K-562 leukemia it was 0.216 µM and 0.574 µM; in the assay on IGROV1 ovarian it was < 0.0461 µM and 0.125 µM. For the same molecule, the TGI was 29.3 µM and > 10 µM with HS 578T breast; 23.1 µM and > 10 µM with T-47D breast; 0.0368 µM and 0.0363 µM in the assay with UACC-257 melanoma; 15.1 µM and > 10 µM in the assay on OVCAR-5 ovarian; 2.33 µM and > 10 µM in the assay on HL-60(TB) leukemia; 13.8 µM and > 10 µM in the assay with UO-31 renal. The TGI in the assay on M14 melanoma is 0.205 µM and 0.0436 µM; in the assay with SR leukemia, 9.66 µM and > 10 µM; in the assay on K-562 leukemia, 6.15 µM and > 10 µM; in the assay with IGROV1 ovarian it was 13.8 µM and > 10 µM.
For `N=c1ccn2c(n1)OC1C(O)C(CO)OC12` (configuration not stated), the GI50 in the assay on HS 578T breast is > 100 µM; with T-47D breast, 16.8 µM; in the assay with UACC-257 melanoma it was > 100 µM; in the assay with HL-60(TB) leukemia, 0.763 µM; in the assay on UO-31 renal, 3.08 µM and 0.355 µM; with M14 melanoma, 0.228 µM. Further, the GI50 in the assay on SR leukemia was 2.6 µM; in the assay on K-562 leukemia, 81.4 µM; in the assay with IGROV1 ovarian, 4.02 µM. For the same molecule, the TGI is > 1000 µM with HS 578T breast; > 1000 µM in the assay with T-47D breast; > 1000 µM in the assay on UACC-257 melanoma; 380 µM and > 100 µM with OVCAR-5 ovarian; 69.7 µM and > 23.6 µM in the assay with HL-60(TB) leukemia; > 1000 µM with UO-31 renal. The TGI in the assay with SR leukemia was > 231 µM; with K-562 leukemia it was > 1000 µM; in the assay with IGROV1 ovarian, > 1000 µM.
As to `CCN(CC)CCOc1ccc(/C=C2\CC3C4CC=C5C[C@@H](O)CC[C@]5(C)C4CC[C@]3(C)C2=O)cc1OC` (some centres not stated), the GI50 is 5.62 µM in the assay with HS 578T breast; 2.79 µM in the assay with T-47D breast; 2.3 µM with UACC-257 melanoma; 5.53 µM in the assay on OVCAR-5 ovarian; 10.1 µM with HL-60(TB) leukemia; 2.06 µM in the assay on M14 melanoma. The GI50 in the assay with SR leukemia was 0.955 µM; with K-562 leukemia, 3.09 µM; in the assay with IGROV1 ovarian, 2.94 µM. For the same molecule, the TGI with HS 578T breast was 33.7 µM; in the assay with T-47D breast it was > 100 µM; with UACC-257 melanoma it was 5.5 µM; in the assay on OVCAR-5 ovarian, 20.3 µM; in the assay on HL-60(TB) leukemia, 22.3 µM; in the assay on UO-31 renal it was > 100 µM. Further, the TGI with M14 melanoma is 4.34 µM; in the assay with SR leukemia, 3.9 µM; in the assay with K-562 leukemia it was > 38.2 µM; in the assay with IGROV1 ovarian, 7.72 µM.

The record behind these values is PubChem BioAssay (NCI).
